In patent publication US20120115852A1, “HETEROCYCLIC COMPOUNDS AS AUTOTAXIN INHIBITORS” (Merck Patent Gesellschaft Mit Beschrankter Haftung, priority 2009, published 2012):

Each compound was assayed against T1, recombinant autotaxin (Homo sapiens, UniProt Q13822) (assay: Autotaxin test (enzyme test), Amplex Red fluorescence with LPC substrate). Conditions: 10 μM compound; autotaxin inhibition (enzyme test); read-out: % Control at 10 μM.
T1 construct: made in house; host or cells: Hi5 insect cells (baculovirus)
Assay type: biochemical
In short: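 Activity was inferred from H2O2 made from released choline, detected as Amplex Red/peroxidase fluorescence (485 nm excitation, 612 nm emission, kinetic read). Beforehand, Hi5-expressed autotaxin sat with compound 30 min at 22° C, then hydrolysed 75 μM final LPC for 90 min at 37° C, pH 8 Tris buffer.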

remaining activity at 10 µM | SMILES
84% | COc1ccc(-c2ccc3c(c2)C(=O)N2CCN(C(=O)[C@@H](O)c4ccccc4)C[C@@H]2C(=O)N3)cc1 [Compound B2]
47% | O=C1Nc2ccc(-c3ccccc3F)cc2C(=O)N2CCN(C(=O)[C@@H](O)c3ccccc3)C[C@H]12 [Compound B3]
71% | O=C(O)CCC(=O)N1CCN2C(=O)c3cc(-c4ccc(Cl)cc4)ccc3NC(=O)[C@@H]2C1 [Compound B4]
64% | O=C1Nc2ccc(-c3ccc(Cl)cc3)cc2C(=O)N2CCN(C(=O)C3CCNCC3)C[C@H]12 [Compound B5]
85% | O=C1Nc2ccc(-c3ccccc3)cc2C(=O)N2CCN(C(=O)C3CCCC3)C[C@@H]12 [Compound B6]
70% | O=C(O)CCCC(=O)N1CCN2C(=O)c3cc(-c4ccco4)ccc3NC(=O)[C@H]2C1 [Compound B7]
70% | CC(C)(CC(=O)O)CC(=O)N1CCN2C(=O)c3cc(-c4ccc(Cl)cc4)ccc3NC(=O)[C@H]2C1 [Compound B8]
74% | O=C1Nc2ccc(-c3ccc4c(c3)OCO4)cc2C(=O)N2CCN(C(=O)[C@@H]3CSCN3)C[C@H]12 [Compound B9]
76% | O=C1Nc2ccc(-c3ccccc3F)cc2C(=O)N2CCN(C(=O)C3CCCC3)C[C@@H]12 [Compound B10]
85% | O=C1Nc2ccc(-c3cccc(C(F)(F)F)c3)cc2C(=O)N2CCN(C(=O)c3ccccc3)C[C@H]12 [Compound B11]
84% | O=C1Nc2ccc(-c3ccc4c(c3)OCO4)cc2C(=O)N2CCN(C(=O)c3cccnc3)C[C@H]12 [Compound B12]
53% | O=C1Nc2ccc(-c3ccccc3)cc2C(=O)N2CCN(C(=O)C3CCCCC3)C[C@H]12 [Compound B13]
80% | O=C1Nc2ccc(-c3ccc(Cl)cc3)cc2C(=O)N2CCN(C(=O)CO)C[C@H]12 [Compound B14]
79% | O=C1Nc2ccc(-c3ccccc3)cc2C(=O)N2CCN(C(=O)c3cccs3)C[C@H]12 [Compound B15]
82% | O=C1Nc2ccc(-c3ccco3)cc2C(=O)N2CCN(C(=O)C3CC3)C[C@H]12 [Compound B16]
26% | O=C1Nc2ccc(-c3ccc(Cl)cc3)cc2C(=O)N2CCN(C(=O)C3CCCCC3)C[C@H]12 [Compound B17]
56% | O=C1Nc2ccc(-c3ccccc3)cc2C(=O)N2CCN(C(=O)[C@@H]3CSCN3)C[C@H]12 [Compound B18]
41% | O=C1Nc2ccc(-c3ccccc3F)cc2C(=O)N2CCN(C(=O)C3CCCCC3)C[C@H]12 [Compound B19]
71% | O=C1Nc2ccc(-c3ccc(Cl)cc3)cc2C(=O)N2CCN(C(=O)c3cccs3)C[C@H]12 [Compound B20]
57% | O=C1Nc2ccc(-c3ccc(Cl)cc3)cc2C(=O)N2CCN(C(=O)COc3ccccc3)C[C@H]12 [Compound B21]
71% | COc1ccc(-c2ccc3c(c2)C(=O)N2CCN(C(=O)[C@@H]4CSCN4)C[C@@H]2C(=O)N3)cc1 [Compound B22]
76% | O=C1Nc2ccc(-c3ccccc3F)cc2C(=O)N2CCN(C(=O)c3cccs3)C[C@H]12 [Compound B23]
83% | CN(C)c1ccc(C(=O)N2CCN3C(=O)c4cc(-c5ccccc5F)ccc4NC(=O)[C@H]3C2)cc1 [Compound B24]
47% | COc1ccc(-c2ccc3c(c2)C(=O)N2CCN(C(=O)CC(C)(C)C)C[C@@H]2C(=O)N3)cc1 [Compound B25]
59% | O=C1Nc2ccc(-c3ccc(Cl)cc3)cc2C(=O)N2CCN(C(=O)c3ccccc3)CC12 (stereo not drawn) [Compound B27]

Same assay, conditions: autotaxin inhibition (enzyme test)

IC50 | SMILES
> 1000 nM | O=C1Nc2ccc(-c3ccc(Cl)cc3)cc2C(=O)N2CCN(C(=O)C3CCCCC3)C[C@H]12 [Compound B17]
> 1000 nM | O=C1Nc2ccc(-c3ccccc3F)cc2C(=O)N2CCN(C(=O)C3CCCCC3)C[C@H]12 [Compound B19]
> 1000 nM | COc1ccc(-c2ccc3c(c2)C(=O)N2CCN(C(=O)CC(C)(C)C)C[C@@H]2C(=O)N3)cc1 [Compound B25]
100 to 1000 nM | CC(C)(C)CC(=O)N1CCN2C(=O)c3cc(-c4ccc(Cl)cc4)ccc3NC(=O)C2C1 (stereo not drawn) [Compound B26]
> 1000 nM | O=C1Nc2ccc(-c3ccc(Cl)cc3)cc2C(=O)N2CCN(C(=O)c3ccccc3)CC12 (stereo not drawn) [Compound B27]
